Data set [1] has as its system wild-type zebrafish larvae. Briefly: Behavioral assay: light-induced motion response of wild-type larvae. The data set is classed as in vivo, Zebrafish (Danio rerio). On the procedure:
A total of 1,000 compounds were selected from the ChemBridge Corp. catalog. Compounds were dissolved in DMSO at a stock concentration of 1 μg/μL (˜1.5 mM). The library was screened at a 1:100 dilution in E3 solution for a final concentration of ˜15 μM. Negative controls were treated with an equal volume of DMSO. Groups of 3 larvae at 3 days post fertilization (dpf) were distributed into the wells of 96-well clear bottom black microplates (07-200-567; Fisher Scientific) in 150 μL E3 before the addition of small molecules. Stock solutions of compounds were added directly to zebrafish in the wells of a 96 well plate (Corning 3631), mixed, and allowed to incubate for 1 h in the dark at 28.5° C. prior to behavioral evaluation in the behavioral assay. Ordering information: 1 (5533696; ChemBridge); 3 (5538408; ChemBridge).
Larvae in each of the wells were exposed to four 1 second flashes of light stimulus in the following order: 450-500 nm (WL1), 415-455 nm (WL2), 352-402 nm (WL3), white light (WL4), with a 5 second inter-stimulus interval. Digital video recording was performed for 5 seconds before the first light stimuli and continued throughout the stimulation sequence. Band pass filters (Semrock FF02-475/50, FF02-435/40, FF01-377/50) were used to restrict the excitation light to the indicated wavelengths. […] 290 frames of digital video were recorded per well at 10 FPS using an EMCCD camera (C9100; Hamamatsu) mounted on an inverted compound microscope (AxioObserver A1; Zeiss) with a NA 0.03 1.25× objective and a barrier with a 0.7 mm diameter opening to restrict light scattering to the sample. MetaMorph software (Molecular Devices) was used to control the execution of TTL signals and camera capture using the built-in stream acquisition with trigger function. Each video was saved for review. Light stimuli were generated with an ozone free 300-Watt xenon bulb housed in a Lambda LS illuminator (Sutter Instruments). A dichroic mirror (T510LPXRXT; Chroma) was used for appropriate excitation of samples and bright field acquisition. Schott longpass absorption glass (RG610; Chroma) was added in the transmitted light path to reduce unwanted excitation to the well and to provide sufficient light for video recording. All behavioral experiments were conducted at room temperature. […]
To analyze digital video recordings, custom MetaMorph software scripts were used to automatically threshold the video to identify the area of larvae in each frame. Threshold images of the frames after each light activation event were overlaid to calculate a new combined threshold area. The motion index was calculated as the percentage change between the threshold area in the frame right before light activation and the new combined threshold area. This motion index correlates with the overall amount of motion in the well.

A short description of data set [2]: UV-Vis absorbance, E/Z isomerization with violet and green light. The conditions noted are these: UV-Vis absorbance in DMSO. It is filed as physicochemical. On the procedure: Compounds were dissolved in DMSO at 250 μM and 260 μM for TRPswitch-A and TRPswitch-B, respectively and UV-Vis absorbance was measured using a NanoDrop 1000 (Thermo Scientific).
The subject of data set [3] is zebrafish Trpa1b. Briefly: Whole cell current in CCD-18Co cells transfected with zebrafish Trpa1b. The data set is classed as cell-based. The following applies: CCD-18Co transfected with zTrpa1b. Here is the method: Immortalized HEK293T cells or human colonic fibroblast cells (CCD-18Co; ATCC) were used. HEK293T cells were plated on […] cover slips and transiently transfected with 10 μg of Trpa1b plasmid (pCMV-zTrpa1b-FLAG) (SEQ ID NO:3) and 5 μg of mNeonGreen cDNA (Allele Biotechnology), then grown in a 6 cm plate for 24-48 h. CCD-18Co were cultured in Eagle's minimal essential medium with 10% FBS, 1× penicillin and streptomycin. CCD-18Co cells were plated on 12 mm cover slips and transiently transfected with 5 μg of zTrpa1b plasmid (pCMV-zTrpa1b-FLAG) together with 5 μg of mNeonGreen cDNA (Allele Biotechnology), then grown in a […] plate for 48-72 h. After this time, the cover slips were transferred to a recording chamber containing an extracellular solution composed of 145 mM sodium gluconate, 4 mM KCl, 3 mM MgCl2, 10 mM D-glucose, 10 mM HEPES; pH 7.4 adjusted with NaOH. The internal solution contained 122 mM cesium methane sulfonate, 1.8 mM MgCl2, 9 mM EGTA, 14 mM creatine phosphate (sodium salt), 4 mM Mg-ATP, 0.3 mM Na-GTP, 10 mM HEPES, pH 7.2 adjusted with CsOH. […] Whole cell currents were measured on an Axopatch 200B amplifier (Molecular De-vices) under the control of pClamp software. […] Basal Trpa1b whole cell currents were measured with a ramp protocol (˜100 to +100 mV, at a holding potential of 0 mV). […] The p values were calculated using a two-tailed, paired Student's t-test.

Data set [4] relates to Trpa1b. Briefly: Heartbeat interruption in larvae expressing Trpa1b in cardiomyocytes. The data set is classed as in vivo, zebrafish. The conditions noted are these: 20 μM. On the procedure: Heartbeat interruption experiments were performed in vivo on 2 dpf Tg(cm/c2:Trpa1b-2A-EGFP) larvae in a Trpa1b^−/− background. Larvae were pretreated with 20 μM of TRPswitch-A or TRPswitch-B in E3 at a final concentration of 1% DMSO for 1 h in the dark at 28.5° C. before experimental manipulation. Immediately prior to the onset of experiments, E3 solution was replaced with 0.2 mg/mL tricaine (Sigma, A5040) in E3 for anesthetizing the larvae. Violet light (352-402 nm) and green light (500-600 nm) were used for E to Z and Z to E isomerization, respectively. Violet and green light excitation were achieved using a band pass filter FF01-377/50 and an et500lp long pass barrier filter, respectively, together with a t600plxxr dichroic mirror and a 300-Watt xenon bulb light source (Sutter Instrument). Experiments were performed using a NA 0.6 40× air objective at room temperature. The zebrafish heart in the whole field of view was illuminated with 1 s violet light followed by various lengths of green light as indicated. Ventricle width measurement was performed using the ImageJ ‘measure’ function on the widest outer ventricle width every 100 ms.

Data set [5] deals with larvae that lack exogenous expression of Trpa1b in cardiomyocytes. In words: Heartbeat experiment in larvae that lack exogenous expression of Trpa1b in cardiomyocytes. The conditions noted are these: no exogenous Trpa1b in cardiomyocytes. The data set is classed as in vivo, zebrafish.

Consider one molecule from US20220280644A1, “"TRPswitch" - A STEP FUNCTION CHEMO-OPTOGENETIC LIGAND” (UNIVERSITY OF UTAH RESEARCH FOUNDATION, priority 2019, published 2022).

On to `Cc1nn(C)c(C)c1/N=N/c1ccc(NC(=O)c2cccs2)cc1NC(=O)c1cccs1` [Compound 9, (E)-N,N′-(4-((1,3,5-trimethyl-1H-pyrazol-4-yl)diazenyl)-1,3-phenylene)bis(thiophene-2-carboxamide)], for which, in data set [1] (3 dpf wild-type larvae, 1 s flashes WL1-WL4), the “light-induced motion response (in vivo activity)” value is “comparable biological response to TRPswitch-A”. Moreover, the “effect of DABCO on light-induced motion response” value in data set [1] (DABCO, singlet oxygen quencher) was “no effect”. Further, the “E/Z photoswitching with violet and green light” value in data set [2] is listed as “quantitative photoswitching in both directions”. Further, the “E/Z photoswitching with violet and green light” value in data set [2] (listed as TRPswitch-B) is given as “complete return”. Besides, in data set [3], the “photocurrent on green light” value is recorded as “green light-induced decrease in photocurrent” and the “photocurrent on violet light” value is “violet light-induced photocurrent”. Also, the “ventricle heartbeat after 1 s violet light” value in data set [4] (1 h pre-incubation) is reported as “could be stopped”. Besides, in data set [4] (after violet light), the “ventricular rhythm after 1 s green light” value is on record as “re-stored”. The “heartbeat switching with light illumination” value in data set [5] is on record as “negative results”.
